{"source": "patent US20140221361A1", "about": "“C-19 MODIFIED TRITERPENOIDS WITH HIV MATURATION INHIBITORY ACTIVITY” (priority 2013, published 2014)", "data": [{"tested_on": "recombinant NL4-3 virus (Renilla luciferase in nef, Gag P373S)", "assay": "HIV cell culture assay (luciferase reporter, MT-2 cells)", "assay_type": "cell-based, HIV-1", "conditions": "Renilla, NL43, MT-2 cells infected for 4-5 days with NLRluc recombinants; luciferase activity; serial dilutions of inhibitor", "method": "MT-2 cells and 293T cells were obtained from the NIH AIDS Research and Reference Reagent Program. MT-2 cells were propagated in RPMI 1640 media supplemented with 10% heat inactivated fetal bovine serum, […]. The 293T cells were propagated in DMEM media supplemented with 10% heat inactivated fetal bovine serum (FBS), 100 units/ml penicillin G and 100 µg/ml streptomycin. The proviral DNA clone of NL4-3 was obtained from the NIH AIDS Research and Reference Reagent Program. A recombinant NL4-3 virus, in which a section of the nef gene from NL4-3 was replaced with the Renilla luciferase gene, was used as a reference virus. In addition, residue Gag P373 was converted to P373S. Briefly, the recombinant virus was prepared by transfection of the altered proviral clone of NL4-3. Transfections were performed in 293T cells using LipofectAMINE PLUS from Invitrogen (Carlsbad, Calif.), according to manufacturer's instruction. The virus was titered in MT-2 cells using luciferase enzyme activity as a marker. Luciferase was quantitated using the Dual Luciferase kit from Promega (Madison, Wis.), with modifications to the manufacturer's protocol. The diluted Passive Lysis solution was pre-mixed with the re-suspended Luciferase Assay Reagent and the re-suspended Stop & Glo Substrate (2:1:1 ratio). Fifty (50) μL of the mixture was added to each aspirated well on assay plates and luciferase activity was measured immediately on a Wallac TriLux (Perkin-Elmer). Antiviral activities of inhibitors toward the recombinant virus were quantified by measuring luciferase activity in cells infected for 4-5 days with NLRluc recombinants in the presence serial dilutions of the inhibitor.", "units": {"EC50": "nM"}, "values": [{"smiles": "C=C(CNCCN(C)C)[C@@H]1CC[C@]2(C(=O)O)CC[C@]3(C)[C@H](CC[C@@H]4[C@@]5(C)CC=C(c6ccc(C(=O)O)cc6)C(C)(C)[C@@H]5CC[C@]43C)[C@@H]12", "note": "[Example 5, (1R,3aS,5aR,5bR,7aR,11aS,11bR,13aR,13bS)-9-(4-carboxyphenyl)-1-(3-(2-(dimethylamino)ethylamino)prop-1-en-2-yl)-5a,5b,8,8,11a-pentamethyl-2,3,3a,4,5,5a,5b,6,7,7a,8,11,11a,11b,12,13,13a,13b-octadecahydro-1H-cyclopenta[a]chrysene-3a-carboxylic acid]", "EC50": 160}, {"smiles": "C=C(CNCCC(=O)O)[C@@H]1CC[C@]2(C(=O)O)CC[C@]3(C)[C@H](CC[C@@H]4[C@@]5(C)CC=C(c6ccc(C(=O)O)cc6)C(C)(C)[C@@H]5CC[C@]43C)[C@@H]12", "note": "[Example 6, (1R,3aS,5aR,5bR,7aR,11aS,11bR,13aR,13bS)-1-(3-(2-carboxyethylamino)prop-1-en-2-yl)-9-(4-carboxyphenyl)-5a,5b,8,8,11a-pentamethyl-2,3,3a,4,5,5a,5b,6,7,7a,8,11,11a,11b,12,13,13a,13b-octadecahydro-1H-cyclopenta[a]chrysene-3a-carboxylic acid]", "EC50": 4000}, {"smiles": "C=C(CN(C)C)[C@@H]1CC[C@]2(C(=O)NCCN(C)C)CC[C@]3(C)[C@H](CC[C@@H]4[C@@]5(C)CC=C(c6ccc(C(=O)O)cc6)C(C)(C)[C@@H]5CC[C@]43C)[C@@H]12", "note": "[Example 7, 4-((1R,3aS,5aR,5bR,7aR,11aS,11bR,13aR,13bS)-3a-(2-(dimethylamino)ethylcarbamoyl)-1-(3-(dimethylamino)prop-1-en-2-yl)-5a,5b,8,8,11a-pentamethyl-2,3,3a,4,5,5a,5b,6,7,7a,8,11,11a,11b,12,13,13a,13b-octadecahydro-1H-cyclopenta[a]chrysen-9-yl)benzoic acid]", "EC50": 0.54}, {"smiles": "C=C(CN(C)CCN(C)C)[C@@H]1CC[C@]2(C(=O)NCCN(C)C)CC[C@]3(C)[C@H](CC[C@@H]4[C@@]5(C)CC=C(c6ccc(C(=O)O)cc6)C(C)(C)[C@@H]5CC[C@]43C)[C@@H]12", "note": "[Example 8, 4-((1R,3aS,5aR,5bR,7aR,11aS,11bR,13aR,13bS)-1-(3-((2-(dimethylamino)ethyl)(methyl)amino)prop-1-en-2-yl)-3a-(2-(dimethylamino)ethylcarbamoyl)-5a,5b,8,8,11a-pentamethyl-2,3,3a,4,5,5a,5b,6,7,7a,8,11,11a,11b,12,13,13a,13b-octadecahydro-1H-cyclopenta[a]chrysen-9-yl)benzoic acid]", "EC50": 1.49}, {"smiles": "C=C(CNCCN(C)C)[C@@H]1CC[C@]2(C(=O)NCCC(=O)O)CC[C@]3(C)[C@H](CC[C@@H]4[C@@]5(C)CC=C(c6ccc(C(=O)O)cc6)C(C)(C)[C@@H]5CC[C@]43C)[C@@H]12", "note": "[Example 9, 4-((1R,3aS,5aR,5bR,7aR,11aS,11bR,13aR,13bS)-3a-(2-carboxyethylcarbamoyl)-1-(3-(2-(dimethylamino)ethylamino)prop-1-en-2-yl)-5a,5b,8,8,11a-pentamethyl-2,3,3a,4,5,5a,5b,6,7,7a,8,11,11a,11b,12,13,13a,13b-octadecahydro-1H-cyclopenta[a]chrysen-9-yl)benzoic acid]", "EC50": 90}, {"smiles": "C=C(CN(C)C(=O)CCC(=O)O)[C@@H]1CC[C@]2(C(=O)NCCC(=O)O)CC[C@]3(C)[C@H](CC[C@@H]4[C@@]5(C)CC=C(c6ccc(C(=O)O)cc6)C(C)(C)[C@@H]5CC[C@]43C)[C@@H]12", "note": "[Example 10, 4-((1R,3aS,5aR,5bR,7aR,11aS,11bR,13aR,13bS)-1-(3-(3-carboxy-N-methylpropanamido)prop-1-en-2-yl)-3a-(2-carboxyethylcarbamoyl)-5a,5b,8,8,11a-pentamethyl-2,3,3a,4,5,5a,5b,6,7,7a,8,11,11a,11b,12,13,13a,13b-octadecahydro-1H-cyclopenta[a]chrysen-9-yl)benzoic acid]", "EC50": 2000}, {"smiles": "C=C(COCCN1CCOCC1)[C@@H]1CC[C@]2(C(=O)O)CC[C@]3(C)[C@H](CC[C@@H]4[C@@]5(C)CC=C(c6ccc(C(=O)O)cc6)C(C)(C)[C@@H]5CC[C@]43C)[C@@H]12", "note": "[Example 11, (1R,3aS,5aR,5bR,7aR,11aS,11bR,13aR,13bS)-9-(4-carboxyphenyl)-5a,5b,8,8,11a-pentamethyl-1-(3-(2-morpholinoethoxy)prop-1-en-2-yl)-2,3,3a,4,5,5a,5b,6,7,7a,8,11,11a,11b,12,13,13a,13b-octadecahydro-1H-cyclopenta[a]chrysene-3a-carboxylic acid]", "EC50": 20}, {"smiles": "C=C(COCCN1CCOCC1)[C@@H]1CC[C@]2(C(=O)NCCC(=O)O)CC[C@]3(C)[C@H](CC[C@@H]4[C@@]5(C)CC=C(c6ccc(C(=O)O)cc6)C(C)(C)[C@@H]5CC[C@]43C)[C@@H]12", "note": "[Example 12, 4-((1R,3aS,5aR,5bR,7aR,11aS,11bR,13aR,13bS)-3a-(2-carboxyethylcarbamoyl)-5a,5b,8,8,11a-pentamethyl-1-(3-(2-morpholinoethoxy)prop-1-en-2-yl)-2,3,3a,4,5,5a,5b,6,7,7a,8,11,11a,11b,12,13,13a,13b-octadecahydro-1H-cyclopenta[a]chrysen-9-yl)benzoic acid]", "EC50": 140}, {"smiles": "C=C(COCCN1CCOCC1)[C@@H]1CC[C@]2(C(=O)NCCNCCO)CC[C@]3(C)[C@H](CC[C@@H]4[C@@]5(C)CC=C(c6ccc(C(=O)O)cc6)C(C)(C)[C@@H]5CC[C@]43C)[C@@H]12", "note": "[Example 13, 4-((1R,3aS,5aR,5bR,7aR,11aS,11bR,13aR,13bS)-3a-(2-(2-hydroxyethylamino)ethylcarbamoyl)-5a,5b,8,8,11a-pentamethyl-1-(3-(2-morpholinoethoxy)prop-1-en-2-yl)-2,3,3a,4,5,5a,5b,6,7,7a,8,11,11a,11b,12,13,13a,13b-octadecahydro-1H-cyclopenta[a]chrysen-9-yl)benzoic acid]", "EC50": 1.97}, {"smiles": "C=C(COCCN1CCOCC1)[C@@H]1CC[C@]2(C(=O)NCCN(C)C)CC[C@]3(C)[C@H](CC[C@@H]4[C@@]5(C)CC=C(c6ccc(C(=O)O)cc6)C(C)(C)[C@@H]5CC[C@]43C)[C@@H]12", "note": "[Example 14, 4-((1R,3aS,5aR,5bR,7aR,11aS,11bR,13aR,13bS)-3a-(2-(dimethylamino)ethylcarbamoyl)-5a,5b,8,8,11a-pentamethyl-1-(3-(2-morpholinoethoxy)prop-1-en-2-yl)-2,3,3a,4,5,5a,5b,6,7,7a,8,11,11a,11b,12,13,13a,13b-octadecahydro-1H-cyclopenta[a]chrysen-9-yl)benzoic acid]", "EC50": 0.72}, {"smiles": "C=C(COCCN1CCOCC1)[C@@H]1CC[C@]2(C(=O)NCCCN3CCCC3=O)CC[C@]3(C)[C@H](CC[C@@H]4[C@@]5(C)CC=C(c6ccc(C(=O)O)cc6)C(C)(C)[C@@H]5CC[C@]43C)[C@@H]12", "note": "[Example 15, 4-((1R,3aS,5aR,5bR,7aR,11aS,11bR,13aR,13bS)-5a,5b,8,8,11a-pentamethyl-1-(3-(2-morpholinoethoxy)prop-1-en-2-yl)-3a-(3-(2-oxopyrrolidin-1-yl)propylcarbamoyl)-2,3,3a,4,5,5a,5b,6,7,7a,8,11,11a,11b,12,13,13a,13b-octadecahydro-1H-cyclopenta[a]chrysen-9-yl)benzoic acid]", "EC50": 1.83}, {"smiles": "C=C(COCCN1CCOCC1)[C@@H]1CC[C@]2(C(=O)NCCCn3ccnc3)CC[C@]3(C)[C@H](CC[C@@H]4[C@@]5(C)CC=C(c6ccc(C(=O)O)cc6)C(C)(C)[C@@H]5CC[C@]43C)[C@@H]12", "note": "[Example 16, 4-((1R,3aS,5aR,5bR,7aR,11aS,11bR,13aR,13bS)-3a-(3-(1H-imidazol-1-yl)propylcarbamoyl)-5a,5b,8,8,11a-pentamethyl-1-(3-(2-morpholinoethoxy)prop-1-en-2-yl)-2,3,3a,4,5,5a,5b,6,7,7a,8,11,11a,11b,12,13,13a,13b-octadecahydro-1H-cyclopenta[a]chrysen-9-yl)benzoic acid]", "EC50": 2.48}, {"smiles": "C=C(COCCN1CCOCC1)[C@@H]1CC[C@]2(C(=O)NCCNCC(=O)O)CC[C@]3(C)[C@H](CC[C@@H]4[C@@]5(C)CC=C(c6ccc(C(=O)O)cc6)C(C)(C)[C@@H]5CC[C@]43C)[C@@H]12", "note": "[Example 17, 4-((1R,3aS,5aR,5bR,7aR,11aS,11bR,13aR,13bS)-3a-(2-(carboxymethylamino)ethylcarbamoyl)-5a,5b,8,8,11a-pentamethyl-1-(3-(2-morpholinoethoxy)prop-1-en-2-yl)-2,3,3a,4,5,5a,5b,6,7,7a,8,11,11a,11b,12,13,13a,13b-octadecahydro-1H-cyclopenta[a]chrysen-9-yl)benzoic acid]", "EC50": 80}]}]}
